# Structures can show the parent of a compound that is named as a salt.
# Test system: PAKT/PKB (p-(S473) AKT) in H209 small cell lung carcinoma cells stimulated with Stem Cell Factor
# Test: PAKT/PKB Cytoblot Assay with H209 cells (SCF-stimulated p-(S473) AKT)
# Format: cell-based
# Details: Homo sapiens, NCI-H209, compound 1 hour, SCF 25 ng/mL 5 minutes, group: between 500 nM and 1 μM (units in value)
# In short: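 H209 SCLC cells kept overnight in RPMI with 0.1% BSA were pretreated 1 h at 37 °C with compound (0.01–10 μM final), then stimulated with SCF 25 ng/mL for 5 min. After formaldehyde/methanol fixation, p-(S473) AKT was detected in-cell with HRP secondary and ECL chemiluminescence, and IC50 was derived.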
row,Structure (SMILES),IC50 [µM]
1,"COc1ccc(NC(=O)Nc2cc(CNc3ccccc3C(=O)Nc3ccc4c(c3)OC(F)(F)O4)ccn2)cc1 [Example 163, N-(2,2-difluoro-1,3-benzodioxol-5-yl)-2-({[2-({[(4-methoxyphenyl)amino]carbonyl}amino)pyridin-4-yl]methyl}amino)benzamide]",0.5 to 1
2,"NCC(O)CNc1cc(CNc2ccccc2C(=O)Nc2ccc3c(c2)OC(F)(F)O3)ccn1 (stereo not shown) [Example 142, 2-[({2-[(3-amino-2-hydroxypropyl)amino]pyridin-4-yl}methyl)amino]-N-(2,2-difluoro-1,3-benzodioxol-5-yl)benzamidebis(trifluoroacetate)(salt)]",0.5 to 1
3,"CN(C)CCCCNC(=O)c1cc(CNc2ccccc2C(=O)Nc2ccc3c(c2)OC(F)(F)O3)ccn1 [Example 90, 4-{[(2-{[(2,2-difluoro-1,3-benzodioxol-5-yl)amino]carbonyl}phenyl)amino]methyl}-N-[4-(dimethylamino)butyl]pyridine-2-carboxamide]",0.5 to 1
4,"N#Cc1cc(CNc2cc(F)c(F)cc2C(=O)Nc2ccc3c(c2)OC(F)(F)C(F)(F)O3)ccn1 [Example 38, 2-{[(2-cyanopyridin-4-yl)methyl]amino}-4,5-difluoro-N-(2,2,3,3-tetrafluoro-2,3-dihydro-1,4-benzodioxin-6-yl)benzamide]",0.5 to 1
5,"CCCCOCCCNC(=O)c1cc(CNc2ccccc2C(=O)Nc2ccc3c(c2)OC(F)(F)O3)ccn1 [Example 112, N-(3-butoxypropyl)-4-{[(2-{[(2,2difluoro-1,3-benzodioxol-5-yl)amino]carbonyl}phenyl)amino]methyl}pyridine-2-carboxamide]",0.5 to 1
6,"CC1(C)OCC(CNC(=O)c2cc(CNc3ccccc3C(=O)Nc3ccc4c(c3)OC(F)(F)O4)ccn2)O1 (stereo not shown) [Example 78, 4-{[(2-{[(2,2-Difluoro-1,3-benzodioxol-5-yl)amino]carbonyl}phenyl)amino]methyl}-N-[(2,2-dimethyl-1,3-dioxolan-4-yl)methyl]pyridine-2-carboxamide]",0.5 to 1

# Same assay, conditions: Homo sapiens, NCI-H209, compound 1 hour, SCF 25 ng/mL 5 minutes, group: between 1 and 3 μM
row,Structure (SMILES),IC50 [µM]
1,"O=C(Nc1ccc2c(c1)OC(F)(F)C(F)(F)O2)c1ncncc1NCc1ccncc1 [Example 39, 5-[(pyridin-4-ylmethyl)amino]-N-(2,2,3,3-tetrafluoro-2,3-dihydro-1,4-benzodioxin-6-yl)pyrimidine-4-carboxamide]",1 to 3
2,"CCOc1ccc(CCNC(=O)c2cc(CNc3ccccc3C(=O)Nc3ccc4c(c3)OC(F)(F)O4)ccn2)cc1OC [Example 125, 4-{[(2-{[(2,2-difluoro-1,3-benzodioxol-5-yl)amino]carbonyl}phenyl)amino]methyl}-N-[2-(4-ethoxy-3-methoxyphenyl)ethyl]pyridine-2-carboxamide]",1 to 3
3,"CC(C)C[C@H](CO)NC(=O)c1cc(CNc2ccccc2C(=O)Nc2ccc3c(c2)OC(F)(F)O3)ccn1 [Example 109, 4-{[(2-{[(2,2-difluoro-1,3-benzodioxol-5-yl)amino]carbonyl}phenyl)amino]methyl}-N-[1-(hydroxymethyl)-3-methylbutyl]pyridine-2-carboxamide]",1 to 3
4,"CN(CCCNC(=O)c1cc(CNc2ccccc2C(=O)Nc2ccc3c(c2)OC(F)(F)O3)ccn1)c1ccccc1 [Example 107, 4-{[(2-{[(2,2-difluoro-1,3-benzodioxol-5-yl)amino]carbonyl}phenyl)amino]methyl}-N-{3-[methyl(phenyl)amino]propyl}pyridine-2-carboxamide]",1 to 3

# Same assay, conditions: Homo sapiens, NCI-H209, compound 1 hour, SCF 25 ng/mL 5 minutes, group: less than 500 nM
row,Structure (SMILES),IC50 [µM]
1,"CS(=O)(=O)CCNC(=O)c1cc(CNc2ccccc2C(=O)Nc2ccc3c(c2)OC(F)(F)O3)ccn1 [Example 83, 4-{[(2-{[(2,2-Difluoro-1,3-benzodioxol-5-yl)amino]carbonyl}phenyl)amino]methyl}-N-[2-(methylsulfonyl)ethyl]pyridine-2-carboxamide]",< 0.5
2,"CN(C)CCCNC(=O)c1cc(CNc2ccccc2C(=O)Nc2ccc3c(c2)OC(F)(F)O3)ccn1 [Example 86, 4-{[(2-{[(2,2-difluoro-1,3-benzodioxol-5-yl)amino]carbonyl}phenyl)amino]methyl}-N-[3-(dimethylamino)propyl]pyridine2-carboxamide]",< 0.5
3,"O=C(Nc1ccc2c(c1)OC(F)(F)C(F)(F)O2)c1ccc(F)cc1NCc1ccncc1 [Example 18, 4-fluoro-2-[(pyridin-4-ylmethyl)amino]-N-(2,2,3,3-tetrafluoro-2,3-dihydro-1,4-benzodioxin-6-yl)benzamide]",< 0.5
4,"O=C(Nc1ccc2c(c1)OC(F)(F)C(F)(F)O2)c1ccccc1NCc1ccncc1 [Example 6, 2-[(pyridin-4-ylmethyl)amino]-N-(2,2,3,3-tetrafluoro-2,3-dihydro-1,4-benzodioxin-6-yl)benzamide]",< 0.5
5,"O=C(Nc1ccc2c(c1)OC(F)(F)O2)c1ccccc1NCc1ccnc(NCCCN2CCOCC2)c1 [Example 144, N-(2,2-difluoro-1,3-benzodioxol-5-yl)-2-[({2-[(3-morpholin-4-ylpropyl)amino]pyridin-4-yl}methyl)amino]benzamidebis(trifluoroacetate)]",< 0.5
6,"CNc1nccc(CNc2ccccc2C(=O)Nc2ccc3c(c2)OC(F)(F)O3)n1 [Example 49, N-(2,2-difluoro-1,3-benzodioxol-5-yl)-2-({[2-(methylamino)pyrimidin-4-yl]methyl}amino)benzamide]",< 0.5
7,"CN(C)CCCNc1cc(CNc2ccccc2C(=O)Nc2ccc3c(c2)OC(F)(F)O3)ccn1 [Example 143, N-(2,2-difluoro-1,3-benzodioxol-5-yl)-2-{[(2-{[3-(dimethylamino)propyl]amino}pyridin-4-yl)methyl]amino}benzamidebis(trifluoroacetate)]",< 0.5
8,"COC(C)C(=O)Nc1cc(CNc2ccccc2C(=O)Nc2ccc3c(c2)OC(F)(F)O3)ccn1 (stereo not shown) [Example 151, N-(2,2-difluoro-1,3-benzodioxol-5-yl)-2-[({2-[(2-methoxypropanoyl)amino]pyridin-4yl}methyl)amino]benzamide]",< 0.5
9,"O=C(NCCOCCO)c1cc(CNc2ccccc2C(=O)Nc2ccc3c(c2)OC(F)(F)O3)ccn1 [Example 103, 4-{[(2-{[(2,2-difluoro-1,3-benzodioxol-5-yl)amino]carbonyl}phenyl)amino]methyl}-N-[2-(2-hydroxyethoxy)ethyl]pyridine-2carboxamide]",< 0.5
10,"CNC(=O)c1cc(CNc2ccccc2C(=O)Nc2ccc3c(c2)C(F)(F)OC(F)(F)O3)ccn1 [Example 4, N-methyl-4-{[(2-{[(2,2,4,4-tetrafluoro-4H-1,3-benzodioxin-6-yl)amino]carbonyl}phenyl)amino]methyl}pyridine-2-carboxamide]",< 0.5
11,"CCN(CC)CCCNC(=O)c1cc(CNc2ccccc2C(=O)Nc2ccc3c(c2)OC(F)(F)O3)ccn1 [Example 87, N-[3-(diethylamino)propyl]-4-{[(2-{[(2,2-difluoro-1,3-benzodioxol-5-yl)amino]carbonyl}phenyl)amino]methyl}pyridine-2-carboxamide]",< 0.5
12,"O=C(Nc1ccc2c(c1)OC(F)(F)C(F)(F)O2)c1cc(F)ccc1NCc1ccncc1 [Example 19, 5-fluoro-2-[(pyridin-4-ylmethyl)amino]-N-(2,2,3,3-tetrafluoro-2,3-dihydro-1,4-benzodioxin-6-yl)benzamide]",< 0.5

# Source: US20080293696A1, “2-Aminoarylcarboxamides Useful as Cancer Chemotherapeutic Agents” (Bayer Pharmaceuticals Corporation, priority 2004, published 2008)
